Experimental data from ChEMBL document CHEMBL1132596, “Non-peptide corticotropin-releasing hormone antagonists: syntheses and structure-activity relationships of 2-anilinopyrimidines and -triazines” (J Med Chem, 1999).

Legend:
[1] = target: T1, Corticotropin-releasing factor receptor 1 (Homo sapiens, UniProt P34998); experiment: Binding affinity for human recombinant corticotropin releasing factor receptor 1
T1 sequence (P34998 whole entry): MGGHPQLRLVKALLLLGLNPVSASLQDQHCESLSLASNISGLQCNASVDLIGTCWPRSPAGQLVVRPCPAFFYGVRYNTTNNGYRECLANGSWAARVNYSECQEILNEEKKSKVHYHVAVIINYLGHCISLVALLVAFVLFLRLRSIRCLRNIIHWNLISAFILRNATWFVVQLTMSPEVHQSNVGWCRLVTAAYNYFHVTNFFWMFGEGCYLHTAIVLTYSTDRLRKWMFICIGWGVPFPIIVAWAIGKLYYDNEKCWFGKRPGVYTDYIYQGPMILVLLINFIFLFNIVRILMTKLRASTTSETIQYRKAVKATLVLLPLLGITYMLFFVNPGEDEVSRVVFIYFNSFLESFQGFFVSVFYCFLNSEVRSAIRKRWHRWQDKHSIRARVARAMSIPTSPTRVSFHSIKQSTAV

[2] = target: T2, Corticotropin-releasing factor receptor 1 (Rattus norvegicus, UniProt P35353); experiment: Binding affinity was measured on rat Corticotropin releasing factor receptor 1
T2 sequence (P35353 whole entry): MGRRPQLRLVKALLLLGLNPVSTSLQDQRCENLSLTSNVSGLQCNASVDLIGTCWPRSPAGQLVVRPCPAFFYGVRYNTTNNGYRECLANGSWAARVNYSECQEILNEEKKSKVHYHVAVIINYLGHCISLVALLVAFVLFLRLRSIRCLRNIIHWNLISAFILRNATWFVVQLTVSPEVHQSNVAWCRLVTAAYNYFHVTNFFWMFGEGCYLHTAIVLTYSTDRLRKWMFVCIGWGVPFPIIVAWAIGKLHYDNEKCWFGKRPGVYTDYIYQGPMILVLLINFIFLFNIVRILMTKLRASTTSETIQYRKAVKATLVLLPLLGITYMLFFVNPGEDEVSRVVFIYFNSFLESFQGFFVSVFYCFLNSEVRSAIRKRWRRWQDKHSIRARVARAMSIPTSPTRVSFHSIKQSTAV

[3] = The clearance was measured in rat at dose 12 mg/kg after intravenous administration.; assay type: ADME, organism-based; set-up: dose 12 mg/kg, route intravenous; conditions: in vivo
[4] = Bioavailability in rat (dose 30 mg/kg i.p.); assay type: ADME, organism-based; conditions: in vivo, ip
[5] = The half life period was measured in rat at dose 12 mg/kg after intravenous administration.; assay type: ADME, organism-based; set-up: dose 12 mg/kg, route intravenous; conditions: in vivo
[6] = The Tmax is the time taken to reach maximum concentration was measured in rat at dose 30 mg/kg after peroral administration.; assay type: ADME, organism-based; set-up: dose 30 mg/kg, route oral; conditions: in vivo, po
[7] = The maximum concentration of the compound was measured in rat at dose 30 mg/kg after intraperitoneal administration.; assay type: ADME, organism-based; set-up: dose 30 mg/kg, route intraperitoneal; conditions: in vivo, ip
[8] = The Tmax is the time taken to reach maximum concentration was measured in rat at dose 30 mg/kg after intraperitoneal administration.; assay type: ADME, organism-based; set-up: dose 30 mg/kg, route intraperitoneal; conditions: in vivo, ip
[9] = The clearance was measured in rat at dose 1 mg/kg after intravenous administration.; assay type: ADME, organism-based; set-up: dose 1 mg/kg, route intravenous; conditions: in vivo
[10] = The Tmax is the time taken to reach maximum concentration was measured in dog at dose 5 mg/kg after peroral administration.; assay type: ADME, organism-based, Canis lupus familiaris; set-up: dose 5 mg/kg, route oral; conditions: in vivo, po
[11] = The Tmax is the time taken to reach maximum concentration was measured in rat at dose 1 mg/kg after peroral administration.; assay type: ADME, organism-based; set-up: dose 1 mg/kg, route oral; conditions: in vivo, po
[12] = The half life period was measured in rat at dose 1 mg/kg after intravenous administration.; assay type: ADME, organism-based; set-up: dose 1 mg/kg, route intravenous; conditions: in vivo
[13] = The clearance was measured in dog at dose 5 mg/kg after intravenous administration.; assay type: ADME, organism-based, Canis lupus familiaris; set-up: dose 5 mg/kg, route intravenous; conditions: in vivo
[14] = The maximum concentration of the compound was measured in rat at dose 30 mg/kg after peroral administration.; assay type: ADME, organism-based; set-up: dose 30 mg/kg, route oral; conditions: in vivo, po
[15] = The maximum concentration of the compound was measured in dog at dose 5 mg/kg after peroral administration.; assay type: ADME, organism-based, Canis lupus familiaris; set-up: dose 5 mg/kg, route oral; conditions: in vivo, po
[16] = The half life period was measured in dog at dose 5 mg/kg after intravenous administration.; assay type: ADME, organism-based, Canis lupus familiaris; set-up: dose 5 mg/kg, route intravenous; conditions: in vivo
[17] = The maximum concentration of the compound was measured in rat at dose 1 mg/kg after peroral administration.; assay type: ADME, organism-based; set-up: dose 1 mg/kg, route oral; conditions: in vivo, po
[18] = The bioavailability measured as F(%) in dog at dose 5 mg/kg after peroral administration.; assay type: ADME, organism-based, Canis lupus familiaris; conditions: in vivo, po
[19] = The maximum concentration of the compound was measured in rat at dose 30 mg/kg after intravenous administration.; assay type: ADME, organism-based; set-up: dose 30 mg/kg, route intravenous; conditions: in vivo
[20] = Tmax is the time taken to reach maximum concentration was measured on rat at dose 30 mg/kg after intravenous administration.; assay type: ADME, organism-based; set-up: dose 30 mg/kg, route intravenous; conditions: in vivo
[21] = The clearance was measured in rat at dose 30 mg/kg after intravenous administration.; assay type: ADME, organism-based; set-up: dose 30 mg/kg, route intravenous; conditions: in vivo
[22] = The bioavailability measured as F(%) on rat at dose 30 mg/kg […].; assay type: ADME, organism-based; conditions: in vivo
[23] = Tmax is the time taken to reach maximum concentration was measured on rat at dose 30 mg/kg after intraperitoneal administration.; assay type: ADME, organism-based; set-up: dose 30 mg/kg, route intraperitoneal; conditions: in vivo, ip
[24] = the half life period was measured in rat at dose 30 mg/kg after intravenous administration.; assay type: ADME, organism-based; set-up: dose 30 mg/kg, route intravenous; conditions: in vivo

Row | Compound | Ki [1] [nM] | further results
1 | CCN(c1nc(C)cc(C)n1)c1c(Br)cc(C(C)C)cc1SC | 51 | –
2 | CCN(c1nc(C)cc(C)n1)c1ccc(OC)cc1SC | 60 | –
3 | CCN(c1nc(C)cc(N2CCNCC2)n1)c1ccc(C(C)C)cc1Br | > 1000 | –
4 | CCN(c1nc(C)cc(C)n1)c1ccc(OC)cc1Br | 35 | –
5 | CCCCc1ccc(N(CC)c2nc(C)cc(C)n2)c(Br)c1 | > 100 | –
6 | Cc1ccc(N(C)c2nc(C)cc(C)n2)c(Br)c1 | – | Ki [2]: 1100 nM
7 | CCN(CC)c1cc(C)nc(N(CC)c2c(Br)cc(OC)cc2OC)n1 | 48 | –
8 | CCN(c1nc(C)cc(C)n1)c1ccc(C(C)=O)cc1SC | 90 | –
9 | CCN(c1nc(C)cc(N(CCOC)CCOC)n1)c1ccc(C(C)C)cc1Br | 25 | –
10 | CCN(c1nc(C)cc(C)n1)c1ccccc1Br | > 1000 | –
11 | CCN(c1nc(C)cc(C)n1)c1ccc(C(C)(C)C)cc1Br | > 100 | –
12 | CCN(c1nc(C)nc(N2CCOCC2)n1)c1c(Br)cc(OC)cc1OC | 32 | clearance [3]: 48.3 mL/min/kg; bioavailability [4]: 47%; half-life [5]: 15.6 h; Tmax [6]: 1.6 h; Cmax [7]: 2700 nM; Tmax [8]: 0.3 h; clearance [9]: 66.7 mL/min/kg; Tmax [10]: 0.5 h; Tmax [11]: 0.3 h; half-life [12]: 7.6 h; clearance [13]: 21.7 mL/min/kg; Cmax [14]: 753 nM; Cmax [15]: 730 nM; half-life [16]: 6 h; Cmax [17]: 21 nM; bioavailability [18]: 20%
13 | CCc1cc(CC)nc(N(CC)c2ccc(C(C)C)cc2Br)n1 | > 100 | –
14 | CCN(c1nc(C)cc(N2CCCCC2)n1)c1ccc(C(C)C)cc1Br | 29 | –
15 | CCCCN(Cc1nnnn1C)c1cc(C)nc(N(CC)c2ccc(C(C)C)cc2Br)n1 | 41 | –
16 | CCN(c1nc(C)cc(C)n1)c1c(Br)cc(OC)cc1OC | 12 | bioavailability [4]: 4%; Cmax [19]: 1880 nM; Tmax [20]: 0.25 h; Cmax [7]: 366 nM; clearance [21]: 88.7 mL/min/kg; bioavailability [22]: 26%; Tmax [23]: 1.2 h; half-life [24]: 5.9 h

More lines, main results first:

Row | Ki [1] [nM] | Compound | further results
17 | 3 | C=CCN(CC=C)c1nc(C)nc(N(CC)c2ccc(N(C)C)cc2Br)n1 | –
18 | 7 | CCCN(CCC)c1nc(C)nc(N(CC)c2ccc(N(C)C)cc2C)n1 | –
19 | 20 | CCN(c1nc(C)cc(C)n1)c1ccc(N(C)C)cc1SC | –
20 | 6 | CCCN(CCC)c1nc(C)nc(N(CC)c2ccc(N(C)C)cc2C(F)(F)F)n1 | –
21 | 4 | CCCN(CCC)c1nc(C)nc(N(CC)c2ccc(C(C)C)cc2Br)n1 | –
22 | 11 | CCN(CC)c1cc(C)nc(N(CC)c2ccc(N(C)C)cc2C(F)(F)F)n1 | –
23 | 9 | CCCN(CC1CC1)c1cc(C)nc(N(CC)c2ccc(C(C)C)cc2Br)n1 | –
24 | 19 | CCCCN(CC)c1cc(C)nc(N(CC)c2ccc(C(C)C)cc2Br)n1 | –
25 | 10 | CCN(CC)c1cc(C)nc(N(CC)c2c(Cl)cc(OC)cc2OC)n1 | –
26 | 5 | CCCN(c1cc(C)nc(N(CC)c2ccc(C(C)C)cc2Br)n1)C1CC1 | –
27 | 9 | CCN(CC)c1cc(C)nc(N(CC)c2ccc(I)cc2Br)n1 | –
28 | 5 | CCCN(CCC#N)c1nc(C)nc(N(CC)c2ccc(N(C)C)cc2C(F)(F)F)n1 | –
29 | 5 | CCCCN(CC)c1nc(C)nc(N(CC)c2ccc(OC(F)(F)F)cc2Br)n1 | –
30 | 5 | CCN(c1nc(C)nc(N(CC2CC2)CC2CC2)n1)c1ccc(N(C)C)cc1C(F)(F)F | –
31 | 15 | CCN(CC)c1cc(C)nc(N(CC)c2c(Cl)cc(OC)cc2Cl)n1 | –
32 | 17 | CCN(Cc1ccccc1)c1cc(C)nc(N(CC)c2ccc(C(C)C)cc2Br)n1 | –
33 | 18 | CCN(c1nc(C)nc(N(CCOC)CCOC)n1)c1ccc(C(C)C)cc1Br | –
34 | 8 | CCCCN(CC)c1cc(C)nc(N(CC)c2ccc(C(C)=O)cc2Br)n1 | –
35 | 8 | CCCCN(CCC#N)c1nc(C)nc(N(CC)c2ccc(N(C)C)cc2C)n1 | –
36 | 6 | CCN(CC)c1nc(C)nc(N(CC)c2ccc(N(C)C)cc2Br)n1 | –
37 | 4 | C=CCN(CC=C)c1nc(C)nc(N(CC)c2ccc(C(C)C)cc2Br)n1 | –
38 | 22 | CCN(c1nc(C)cc(N2CCOCC2)n1)c1ccc(C(C)C)cc1Br | –
39 | 8 | CCCCN(CC#N)c1nc(C)nc(N(CC)c2ccc(N(C)C)cc2C)n1 | –
